Where “and” joins values, the source holds several entries; their conditions need not be identical. Equal entries are not always repeated. Where two headings read alike, the source gives them in different places.
Key:
[1] = tested on: organism classes (Gram-negative, Gram-positive and fungi); assay: Single-dose screening summary by organism class; type: cell-based; details: 32 μg/mL; 0 = no activity
Method: (§1) Percentage growth inhibition of an individual sample was calculated based on growth in a reference well determined from negative controls (media only) and positive controls (bacterial/fungal media without inhibitors). Negative inhibition values indicate that the growth rate (or OD600) is higher compared to the reference growth (bacteria/fungi only, set to 0% inhibition). The growth rates for all bacteria and fungi may vary at −/+10%, which were within the reported normal distribution of bacterial/fungal growth. Any significant variations (or outliers/hits) were identified by the modified Z-Score, and the active compounds were selected by a combination of inhibition values and Z-Score.
Z-Score analysis was carried out to investigate outliers or hits among the samples. The Z-Score was calculated based on the sample population using a modified Z-Score method which accounts for possible skewed sample population. The modified method uses median and MAD ([…]) instead of average and standard deviation, and a scaling factor (Iglewicz, B. & Hoaglin, D. C. Volume 16: How to Detect and Handle Outliers. The ASQC Basic Reference in Quality Control: Statistical Techniques, 1993). The equation to calculate the modified Z-Score value is as follow: […]
(§2) A M(i) value of >|2.5| (absolute) would classify the sample as outliers or hits. Active samples were denoted as compounds with inhibition values equal to or above 80% and absolute Z-Score above |2.5| for either replicate (n=2 on different plates). Partial active samples were denoted as compounds with inhibition values from 50% to <80%, or absolute Z-Score below |2.5|.

E. coli K12 [2] = assay: Cellular uptake by E. coli K12 (absorption spectroscopy); type: cell-based, Escherichia coli; details: for Uptake by E. coli K12: 10 μg/mL COE in PBS, OD=0.5, 2 hrs, room temperature; for Uptake by E. coli K12 at 4° C.: 10 μg/mL COE, 2 hrs, 4° C. (below membrane phase transition temperature)
Method: The relative membrane affinity of COE-D4, COE-D6 and COE-D8 was estimated from the quantity taken up by cells using absorption spectroscopy. After cultures of E. coli K12 were grown in MHB at 37° C., the cells were harvested by centrifugation (6000 rpm, 5 min) and washed twice with PBS solution (pH=7.2). The cells were then resuspended in PBS and with the density adjusted to OD=1.0. Thereafter, 5 mL of this cell suspension was mixed with an equal volume of 20 μg/mL of COE in PBS to achieve a final concentration of 10 μg/mL (in triplicates). After exposure to COEs for 2 hrs at room temperature and with shaking (200 rpm), the cells were removed by centrifugation and the supernatant was collected for absorbance scans to quantify the remaining COE in the supernatant. The uptake quantity was estimated by comparing the absorbance of the supernatant to the corresponding control COE solution (i.e. 10 μg/mL in PBS). The procedure for uptake measurements at the lower temperature is similar to the one described above, but with the exposure to COEs and centrifugation occurring at 4° C. instead of room temperature
The effect of molecular structures of the COEs on relative membrane affinity, estimated from the amount taken up by E. coli K12, was measured by absorption spectroscopy (FIG. 8a-c). These experiments utilised cell suspensions (OD=0.5) incubated for 2 hrs with 10 μg mL^−1 of various COE. Cells were removed by centrifugation, and the amount of uncomplexed COE was determined from the optical absorption spectra. The longest molecule, COE-D8, achieved the highest uptake in bacteria (72%). In contrast, only 3% of COE-D4 was absorbed while the uptake for COE-D6 was 16% (Table 1a).
Parallel experiments were carried out at 4° C. […] As a result of the reduced fluidity of cellular membrane at lower temperature, the uptake decreased to around 1% for COE-D4, 5% for COE-D6, and 34% for COE-D8.

E. coli K12 [3] = assay: Epifluorescence imaging of COE-treated E. coli K12; type: cell-based, Escherichia coli; details: 32 μg/mL COE; excitation 365 nm, emission 445/50 nm
Method: E. coli K-12 was grown, collected and washed according to the procedure described above (in the uptake measurements). COE solutions (in PBS) were added to a PBS suspension of E. coli K12 (OD600=1.0) to achieve final COE concentrations of 32 μg/mL. After incubating for 2 hrs at room temperature under shaking (200 rpm), a drop of suspension was placed on a microscope slide with a cover slip (#1.5, 0.17 mm thickness) and imaged using an inverted widefield epifluorescence microscope with Plan-Apochromat 100x/1.4 phase contrast with oil immersion lens (Carl Zeiss Axio Observer Z1 Inverted Microscope). The fluorescence microscopy images were observed by collecting the fluorescence signal of COEs using the DAPI dye channel (filter set 49 DAPI with excitation peak at 365 nm and emission at 445/50 nm). The bright field images of cells were obtained at exact same location using phase contrast transmitted light technique (Plan-Apochromat 100x/1.4 phase contrast with oil immersion lens). The cell images treated by different COEs were obtained under identical conditions with the matching irradiation frequency and exposure time.
Epi-fluorescence images of the COE-treated E. coli K12 cells were acquired by excitation at λ=365 nm and collecting emission at λ=445/50 nm.

[4] = tested on: Escherichia coli FDA control ATCC 25922; assay: Single-dose growth inhibition, Ec; type: cell-based
Method: (§3) Inhibition of bacterial growth was determined by measuring the absorbance at 600 nm (OD600), using a Tecan M1000 Pro monochromator plate reader. Growth inhibition was calculated for each well, relative to the reference growths determined from a negative control (media only) and positive control (bacteria without inhibitors) incubated in the same plate. A single dose of 32 μg/mL of COE (final concentration) was used for each test.
as §1, §2

[5] = Solubility in PBS / aqueous solubility; type: physicochemical
[6] = tested on: Staphylococcus aureus MRSA ATCC 43300; assay: Single-dose growth inhibition, Sa; type: cell-based
Method: as §3, §1, §2

[7] = tested on: Pseudomonas aeruginosa ATCC 27853; assay: Single-dose growth inhibition, Pa; type: cell-based
Method: as §3, §1, §2

[8] = tested on: Acinetobacter baumannii ATCC 19606; assay: Single-dose growth inhibition, Ab; type: cell-based
Method: as §3, §1, §2

[9] = tested on: Candida albicans ATCC 90028; assay: Single-dose growth inhibition, Ca; type: cell-based
Method: Growth inhibition of C. albicans was determined by measuring the absorbance at 530 nm (OD530), while the growth inhibition of C. neoformans was determined by measuring the difference in absorbance between 600 and 570 nm (OD600-570), after the addition of resazurin (0.001 wt. % final concentration) and incubation at 35° C. for additional 2 hrs. The absorbance was measured using a Biotek Synergy HTX plate reader. The relative growth inhibition was calculated for each well, relative to that determined from a negative control (media only) and positive control (bacteria without inhibitors) on the same plate as references. A single dose of 32 μg/mL of COE (final concentration) was used for each test.
as §1, §2

[10] = ATCC25922, read-out: Growth inhibition Ec
[11] = aqueous buffer, in PBS, read-out: Solubility in PBS
[12] = ATCC27853, read-out: Growth inhibition Pa
[13] = ATCC19606, read-out: Growth inhibition Ab
[14] = ATCC90028, read-out: Growth inhibition Ca
[15] = PBS (aqueous solubility), read-out: aqueous solubility
[16] = ATCC25922, 32 μg/mL single dose, n=2, read-out: Growth inhibition Ec
[17] = 32 μg/mL single dose, n=2, read-out: Growth inhibition Sa
[18] = ATCC27853, 32 μg/mL single dose, n=2, read-out: Growth inhibition Pa
[19] = ATCC19606, 32 μg/mL single dose, n=2, read-out: Growth inhibition Ab
[20] = ATCC90028, 32 μg/mL single dose, n=2, read-out: Growth inhibition Ca

Compound: C[N+](C)(C)CCCCOc1ccc(/C=C/c2ccc(OCCCC[N+](C)(C)C)cc2)cc1 [COE-D4]
- Activity: number of organism classes the compound has been found active against [1]: 2
- Uptake by E. coli K12 (E. coli K12 [2]): 3% and 3 ± 2%
- Uptake by E. coli K12 at 4° C. (E. coli K12 [2]): around 1%
- Fluorescence intensity of treated E. coli K12 cells relative to background (E. coli K12 [3]): indistinct image
- inhibition at 32 µg/mL [4, 10]: < 50%
- solubility [5, 11]: 3100 µg/mL
- inhibition at 32 µg/mL ([6]; read-out: Growth inhibition Sa): > 80%
- inhibition at 32 µg/mL [7, 12]: < 50%
- inhibition at 32 µg/mL [8, 13]: < 50%
- inhibition at 32 µg/mL [9, 14]: < 50%

Compound: C[N+](C)(C)CCCCCCOc1ccc(/C=C/c2ccc(OCCCCCC[N+](C)(C)C)cc2)cc1 [COE-D6]
- Activity: number of organism classes the compound has been found active against [1]: 3
- Uptake by E. coli K12 (E. coli K12 [2]): 16% and 16 ± 3%
- Uptake by E. coli K12 at 4° C. (E. coli K12 [2]): ~5%
- Fluorescence intensity of treated E. coli K12 cells relative to background (E. coli K12 [3]): intermediate fluorescence intensity
- inhibition at 32 µg/mL [4, 10]: > 80%
- solubility [5, 15]: 240 µg/mL
- solubility [5, 11]: 240 µg/mL
- inhibition at 32 µg/mL ([6]; read-out: Growth inhibition Sa): > 80%
- inhibition at 32 µg/mL [7, 12]: < 50%
- inhibition at 32 µg/mL [8, 13]: < 50%
- inhibition at 32 µg/mL [9, 14]: > 80%

Compound: C[N+](C)(C)CCCCCCCCOc1ccc(/C=C/c2ccc(OCCCCCCCC[N+](C)(C)C)cc2)cc1 [COE-D8]
- Activity: number of organism classes the compound has been found active against [1]: 3
- Uptake by E. coli K12 (E. coli K12 [2]): 72% and 72 ± 5%
- Uptake by E. coli K12 at 4° C. (E. coli K12 [2]): ~34%
- Cell affinity relative to COE-D4 (E. coli K12 [2]; E. coli K12): 30 times
- Fluorescence intensity of treated E. coli K12 cells relative to background (E. coli K12 [3]): highest fluorescence intensities
- inhibition at 32 µg/mL [4, 10]: > 80%
- solubility [5, 11]: 65 µg/mL
- inhibition at 32 µg/mL ([6]; read-out: Growth inhibition Sa): > 80%
- inhibition at 32 µg/mL [7, 12]: 50 to 80%
- inhibition at 32 µg/mL [8, 13]: > 80%
- inhibition at 32 µg/mL [9, 14]: > 80%

Compound: CN(C)CC[N+](C)(C)CCCCCCOc1ccc(/C=C/c2ccc(OCCCCCC[N+](C)(C)CCN(C)C)cc2)cc1 [COE-D62N]
- Activity: number of organism classes the compound has been found active against [1]: 3
- Uptake by E. coli K12 (E. coli K12 [2]): 11±2%
- inhibition at 32 µg/mL [4, 16]: > 80%
- solubility [5, 15]: > 4000 µg/mL
- inhibition at 32 µg/mL [6, 17]: > 80%
- inhibition at 32 µg/mL [7, 18]: < 50%
- inhibition at 32 µg/mL [8, 19]: > 80%
- inhibition at 32 µg/mL [9, 20]: > 80%

Compound: CN(C)CC[N+](C)(C)CCCCCCCCOc1ccc(/C=C/c2ccc(OCCCCCCCC[N+](C)(C)CCN(C)C)cc2)cc1 [COE-D82N]
- Activity: number of organism classes the compound has been found active against [1]: 3
- Uptake by E. coli K12 (E. coli K12 [2]): 76±3%
- inhibition at 32 µg/mL [4, 16]: > 80%
- inhibition at 32 µg/mL [6, 17]: > 80%
- inhibition at 32 µg/mL [7, 18]: 50 to 80%
- inhibition at 32 µg/mL [8, 19]: > 80%
- inhibition at 32 µg/mL [9, 20]: > 80%
